From ChEMBL document CHEMBL1833912, “Discovery of PF-184563, a potent and selective V1a antagonist for the treatment of dysmenorrhoea. The influence of compound flexibility on microsomal stability” (Bioorg Med Chem Lett, 2011)

Tests used:
Type in all cases: ADME, organism-based
Conditions in all cases: in vivo
[1] = Bioavailability in Sprague-Dawley rat at 2 mg/kg, iv and po
[2] = Tmax in Sprague-Dawley rat at 2 mg/kg, iv and po; parameters: dose 2 mg/kg, route oral
Rattus norvegicus = assay: Volume of distribution in Sprague-Dawley rat at 2 mg/kg, iv and po; parameters: dose 2 mg/kg, route oral
[3] = Cmax in Sprague-Dawley rat at 2 mg/kg, iv and po; parameters: dose 2 mg/kg, route oral

SMILES: CN1Cc2cc(Cl)ccc2-n2c(nnc2C2CCN(c3ccccn3)CC2)C1
- bioavailability [1]: 34%
- Tmax [2]: 48 min
- Vd (Rattus norvegicus): 2.7 L/kg
- Cmax [3]: 0.097 µg/mL
